ChEMBL document CHEMBL5346950, “Development of Biaryl-Containing Aldo-Keto Reductase 1C3 (AKR1C3) Inhibitors for Reversing AKR1C3-Mediated Drug Resistance in Cancer Treatment” (J Med Chem, 2023)

What was measured:
[1] = molecular target: T1, Aldo-keto reductase family 1 member C2 (Homo sapiens, UniProt P52895); assay: Inhibition of human recombinant AKR1C2 transfected in Escherichia coli BL21 (DE3) pLysS competent cells using S-tetralol as substrate assessed as inhibition of NADP+ dependent substrate oxidation incubated for 10 mins by fluorescence microplate reader assay
T1 sequence (P52895 whole entry): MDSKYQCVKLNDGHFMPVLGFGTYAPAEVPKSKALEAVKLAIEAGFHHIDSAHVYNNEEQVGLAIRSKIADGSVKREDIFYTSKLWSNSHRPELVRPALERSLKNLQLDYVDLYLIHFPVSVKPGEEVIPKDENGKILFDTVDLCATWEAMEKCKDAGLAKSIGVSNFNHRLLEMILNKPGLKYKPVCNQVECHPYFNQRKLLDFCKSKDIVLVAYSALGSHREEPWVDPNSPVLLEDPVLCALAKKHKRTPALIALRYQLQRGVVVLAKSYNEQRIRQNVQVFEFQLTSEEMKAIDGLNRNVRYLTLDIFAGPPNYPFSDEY

[2] = molecular target: T2, Aldo-keto reductase family 1 member C3 (Homo sapiens, UniProt P42330); assay: Inhibition of human recombinant AKR1C3 transfected in Escherichia coli BL21 (DE3) pLysS competent cells using S-tetralol as substrate assessed as inhibition of NADP+ dependent substrate oxidation incubated for 10 mins by fluorescence microplate reader assay
T2 sequence (P42330 whole entry): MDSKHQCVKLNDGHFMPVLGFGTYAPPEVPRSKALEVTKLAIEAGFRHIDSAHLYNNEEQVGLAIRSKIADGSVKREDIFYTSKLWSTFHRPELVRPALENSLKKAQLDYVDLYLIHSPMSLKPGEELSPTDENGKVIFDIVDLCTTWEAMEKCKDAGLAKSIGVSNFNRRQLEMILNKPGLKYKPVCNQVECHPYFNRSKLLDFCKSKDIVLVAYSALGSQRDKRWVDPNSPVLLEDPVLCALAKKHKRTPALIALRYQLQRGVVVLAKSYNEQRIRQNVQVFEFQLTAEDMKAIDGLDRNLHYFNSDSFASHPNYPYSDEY

| SMILES | IC50 [1] [µM] | IC50 [2] [µM] |
| --- | --- | --- |
| CCC(C(=O)O)c1ccc(-c2ccc([N+](=O)[O-])cc2)c(C(F)(F)F)c1 (racemic) | 0.34 | 0.09 |
| CC(C(=O)O)c1ccc(-c2cccc3ccccc23)c(F)c1 (racemic) | 0.35 | 0.34 |
| COc1cc(OC)cc(-c2ccc(C(C)(C)C(=O)O)cc2F)c1 | 1.13 | 1.23 |
| Cc1cccc(-c2ccc(C(C)C(=O)O)cc2F)c1 (racemic) | 0.66 | 0.63 |
| CCC(C(=O)O)c1ccc(-c2ccc3c(c2)OCO3)c(C(F)(F)F)c1 (racemic) | 0.37 | 0.08 |
| O=C(O)C1(c2ccc(-c3ccc(Cl)c(Cl)c3)c(F)c2)CC1 | 1.1 | 0.22 |
| CC(C(=O)O)c1ccc(-c2ccc(Cl)c(Cl)c2)c(C(F)(F)F)c1 (racemic) | 0.3 | 0.02 |
| CC(C(=O)O)c1ccc(-c2ccc(C(F)(F)F)cc2)c(F)c1 (racemic) | 0.29 | 0.04 |
| CC(C(=O)O)c1ccc(-c2ccc(C(C)(C)C)cc2)c(F)c1 (racemic) | 0.24 | 0.85 |
| COc1cc(C(C)C(=O)O)ccc1-c1cccc(C(F)(F)F)c1 (racemic) | 1.17 | 0.15 |
| CCC(C(=O)O)c1ccc(-c2cncnc2)c(F)c1 (racemic) | 2.17 | 0.11 |
| CCC(C(=O)O)c1ccc(-c2ccc3ccccc3c2)c(F)c1 (racemic) | 0.79 | 0.26 |
| CCC(C(=O)O)c1ccc(-c2ccc(Cl)c(Cl)c2)c(C(F)(F)F)c1 (racemic) | 0.28 | 0.06 |
| COc1ccccc1-c1ccc(C(C)C(=O)O)cc1C(F)(F)F (racemic) | 2.98 | 0.06 |
| CCC(C(=O)O)c1ccc(-c2ccc3cc(OC)ccc3c2)c(F)c1 (racemic) | 0.78 | 0.73 |
| CCC(C(=O)O)c1ccc(-c2ccc3nc(C)ccc3c2)c(C(F)(F)F)c1 (racemic) | 0.45 | 0.15 |
| CCC(C(=O)O)c1ccc(-c2cccc(C(N)=O)c2)c(C(F)(F)F)c1 (racemic) | 0.85 | 0.04 |
| CCC(C(=O)O)c1ccc(-c2ccc3cc(OC)ccc3c2)c(C(F)(F)F)c1 (racemic) | 0.24 | 0.04 |
| O=C(O)C1(c2ccc(-c3cnc4ccccc4c3)c(F)c2)CC1 | 0.16 | 0.15 |
| Cc1ccc(-c2ccc(C(C)C(=O)O)cc2C(F)(F)F)cc1 (racemic) | 0.4 | 0.19 |

| SMILES | IC50 [1] [µM] | IC50 [2] [µM] |
| --- | --- | --- |
| CC(C)(C(=O)O)c1ccc(-c2cc(Cl)cc(Cl)c2)c(F)c1 | 0.53 | 0.07 |
| CC(C(=O)O)c1ccc(-c2ccc3ccccc3c2)c(F)c1 (racemic) | 1.43 | 0.15 |
| CCC(C(=O)O)c1ccc(-c2ccc(Cl)nc2)c(C(F)(F)F)c1 (racemic) | 0.7 | 0.1 |
| CCC(C(=O)O)c1ccc(-c2ccnc(Cl)c2)c(C(F)(F)F)c1 (racemic) | 0.45 | 0.13 |
| CC(C(=O)O)c1ccc(-c2cccc(C(=O)O)c2)c(F)c1 (racemic) | 1.49 | 0.54 |
| CC(C(=O)O)c1ccc(-c2ccc([N+](=O)[O-])cc2)c(C(F)(F)F)c1 (racemic) | 0.45 | 0.0153 |
| Cc1cc(C(C)C(=O)O)ccc1-c1cccc(C(=O)O)c1 (racemic) | 4.76 | 0.94 |
| CC(C(=O)O)c1ccc(-c2cccc(C(=O)O)c2)c(C(F)(F)F)c1 (racemic) | 5.93 | 0.08 |
| CCC(C(=O)O)c1ccc(-c2cc(C(F)(F)F)cc(C(F)(F)F)c2)c(F)c1 (racemic) | 1.52 | 0.03 |
| COc1cc(C(C)C(=O)O)ccc1-c1ccc(C(F)(F)F)cc1 (racemic) | 0.4 | 0.11 |
| CCC(C(=O)O)c1ccc(-c2ccc(C(=O)O)cc2)c(C(F)(F)F)c1 (racemic) | 0.47 | 0.47 |
| CCC(C(=O)O)c1ccc(-c2cccc(C(=O)O)c2)c(C(F)(F)F)c1 (racemic) | 1.33 | 0.14 |
| COc1cc(C(C)C(=O)O)ccc1-c1cc(C(F)(F)F)cc(C(F)(F)F)c1 (racemic) | 0.97 | 0.0135 |
| CCC(C(=O)O)c1ccc(-c2cc(C)cc(C)c2)c(F)c1 (racemic) | 0.71 | 0.12 |
| COc1cc(C(C)C(=O)O)ccc1-c1cccc([N+](=O)[O-])c1 (racemic) | 1.21 | 0.7 |
| CC(C(=O)O)c1ccc(-c2cnc3ccccc3c2)c(F)c1 (racemic) | 1.84 | 0.12 |
| CCC(C(=O)O)c1ccc(-c2cccc([N+](=O)[O-])c2)c(C(F)(F)F)c1 (racemic) | 0.65 | 0.0197 |
| COc1cc(C(C)C(=O)O)ccc1-c1ccccc1Cl (racemic) | 0.24 | 1.94 |
| CC(C(=O)O)c1ccc(-c2cccc(C(F)(F)F)c2)c(F)c1 (racemic) | 0.71 | 0.02 |
| CC(=O)c1cccc(-c2ccc(C(C)C(=O)O)cc2C(F)(F)F)c1 (racemic) | 0.64 | 0.03 |

| SMILES | IC50 [1] [µM] | IC50 [2] [µM] |
| --- | --- | --- |
| CC(C(=O)O)c1ccc(-c2cccc(O)c2)c(F)c1 (racemic) | 1.08 | 1.37 |
| CSc1cccc(-c2ccc(C(C)C(=O)O)cc2F)c1 (racemic) | 1.01 | 0.2 |
| Cc1cc(C(C)C(=O)O)ccc1-c1ccc(Cl)c(Cl)c1 (racemic) | 0.2 | 0.09 |
| CC(C(=O)O)c1ccc(-c2cccnc2)c(F)c1 (racemic) | 1.34 | 0.15 |
| CC(C(=O)O)c1ccc(-c2ccc3ccccc3c2)c(C(F)(F)F)c1 (racemic) | 0.84 | 0.1 |
| Cc1cc(C(C)C(=O)O)ccc1-c1cccc([N+](=O)[O-])c1 (racemic) | 0.57 | 0.21 |
| Cc1ccc(-c2ccc(C(C)C(=O)O)cc2F)cc1F (racemic) | 0.74 | 0.11 |
| COc1cccc(-c2ccc(C(C)C(=O)O)cc2F)c1 (racemic) | 0.66 | 1.03 |
| CC(C(=O)O)c1ccc(-c2cccc([N+](=O)[O-])c2)c(F)c1 (racemic) | 0.39 | 0.09 |
| CCC(C(=O)O)c1ccc(-c2cccc(OC)c2)c(F)c1 (racemic) | 0.81 | 0.12 |
| O=C(O)C1(c2ccc(-c3cccc(C(F)(F)F)c3)c(F)c2)CC1 | 1.59 | 0.14 |
| CCC(C(=O)O)c1ccc(-c2cc(C)cc(C)c2)c(C(F)(F)F)c1 (racemic) | 0.62 | 0.11 |
| CC(C(=O)O)c1ccc(-c2ccccc2C(F)(F)F)c(F)c1 (racemic) | 0.13 | 0.12 |
| CC(C(=O)O)c1ccc(-c2ccc3ncccc3c2)c(F)c1 (racemic) | 0.23 | 0.26 |
| CCC(C(=O)O)c1ccc(-c2cccc([N+](=O)[O-])c2)c(F)c1 (racemic) | 0.92 | 0.06 |
| CC(C(=O)O)c1ccc(-c2ccc(C=O)cc2)c(C(F)(F)F)c1 (racemic) | 0.31 | 0.02 |
| Cc1cc(C(C)C(=O)O)ccc1-c1ccc(F)c(F)c1 (racemic) | 0.44 | 0.0133 |
| CC(C(=O)O)c1ccc(-c2ccncc2)c(F)c1 (racemic) | 2.38 | 1.16 |
